The values that follow come from patent US20220064141A1, “BENZOPYRIDONE HETEROCYCLIC COMPOUND AND USE THEREOF” (BrightGene Bio-Medical Technology Co., Ltd., priority 2019, published 2022).

The test system of data set [1] is NCI-H358 human non-small cell lung cancer cell with KRAS G12C mutation. In words: Cell Titer-Glo cell viability, NCI-H358 cells (72 h). It is filed as cell-based. The following applies: Homo sapiens, NCI-H358, 72 h, numeric values. The essentials: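 NCI-H358 (KRAS G12C) cells in DMEM with 10% FBS, seeded and left overnight at 37 °C, then treated 72 h with compound at 30 μM to 0.01 nM final. Viability from ATP content with Cell Titer-Glo after 1-4 h incubation at 37 °C; […].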
(ATP-based viability assays read luminescence as a measure of living cells.)

The nature of data set [2]: Pharmacokinetic experiment in male CD-1 mice (IV and PO). Format: in vivo. The procedure: Effect Example 3: Pharmacokinetic Experiment
(1) Compound I-2-2 of the present disclosure prepared in the above Example was used to be formulated into a clear solution (0.3 mg/mL) (2% DMSO+30% PEG 300+2% Tween 80+66% H2O) as a drug for oral administration; and was used to be formulated into a clear solution (0.2 mg/mL) (2% DMSO+30% PEG 300+2% Tween 80+66% H2O) as a drug for intravenous administration.
(2) Male CD-1 mice (three mice in each group, weighing 27 g to 28 g) were provided by Shanghai Slack Laboratory Animal Co., Ltd. The test mice were given an environmental accommodation period of 2 to 4 days before the experiment. The mice were fasted for 8 to 12 hours before administration, and they were provided access to water (2 hours after administration) and food (4 hours after administration).
(3) 12 hours after the mice were fasted but had free access to water, blank plasma at time 0 was taken.
(4) The mice in step 1) were taken; and they were orally (PO) administered 3 mg/kg of the compound to be tested, or intravenously (IV) administered 1 mg/kg of the compound to be tested.
(5) At 5 min, 15 min, 30 min, 1 h, 2 h, 4 h, 8 h, 10 h, and 24 h after oral administration, blood was successively taken from the fundus oculi venous plexus and placed in EP tubes with heparin. After centrifugation at 8000 rpm/min for 5 min, the plasma in upper layer was collected and frozen at −20° C., waiting for LC-MS/MS analysis.
(6) WinNonlin software was used to calculate the pharmacokinetic parameters based on the blood concentration-time data obtained in […]).

Data set [3] relates to MIAPaCa-2 human-derived pancreatic cancer cells. As to the kind of experiment: In-vivo pharmacodynamic experiment, MIAPaCa-2 subcutaneous xenograft in BALB/c nude mice. The conditions noted are these: for TGI (%) / TIC / Tumor volumes (mm^3) (Day 23): Day 23; for Tumor volumes (mm^3) (Day 0): baseline. From the text: Effect Example 4: In-Vivo Pharmacodynamic Experiment
Purpose of the experiment: To evaluate the anti-tumor effect of the test drug in female BALB/c nude mice model subcutaneously xenografted with MIAPaCa-2 human-derived pancreatic cancer cells.
Experimental operation: BALB/c nude mice, female, 6- to 8-weeks old, weighing about 17.6 g to 21.1 g. Each mouse was subcutaneously inoculated with 5×10^6 MIAPaCa-2 cells (with Matrigel; the volume ratio was 1:1) in the right flank. The administration was initiated when the average tumor volume reached about 100 cubic millimeters. The test compounds were orally administered daily by intragastric injection (6 mice in each group) for a total of 16 or 23 days. Tumor volumes were measured three times a week. The volume was measured in cubic millimeters and calculated by the following formula: tumor volume (mm^3)=½×(a×b^2) (where a represented the long diameter and b represented the short diameter). The anti-tumor efficacy of the compound was evaluated by TGI (%).The calculation formula was as follows: TGI %=(1−T/C)×100% (T and C were the relative tumor volumes (RTV) of a mouse in the treatment group and a mouse in the control group at a specific time point), respectively. Safety was evaluated according to the changes of the body weight of the animals and animal deaths.

[4] abbreviates: oral daily 30 mg/kg (Day 0 to Day 9) + 15 mg/kg (Day 10 to Day 16).
[5] abbreviates: oral daily 100 mg/kg (Day 0 to Day 9) + 50 mg/kg (Day 10 to Day 16) + 100 mg (Day 17 to Day 23).

In general, IC50 refers to the concentration that inhibits the measured activity by half. The low end stands for greater potency, the high end for weaker potency. Usually AUC stands for concentration integrated over time. A high value points to high exposure. As usually defined, the half-life is the time in which the quantity being followed falls by half. A high value points to slow loss. For orientation: Cmax means the peak of the concentration-time curve. Usually Tmax stands for the time at which the peak concentration occurs.

Each structure is given as a SMILES string.

Turning to `C=CC(=O)N1CCN(c2c(C#N)c(=O)n(-c3ccccc3C(C)C)c3cc(-c4c(C)ccc5[nH]ncc45)c(Cl)cc23)[C@@H](C)C1` (single isomer, unassigned) [Compound I-2-2], the concentration for half-maximal inhibition (IC50) in data set [1] came out at 50 nM. In data set [2] (PO 3 mg/kg), this compound gave an F of 18.9%. In data set [2] (mouse, plasma, IV 1 mg/kg), the AUC was determined as 0.867 µg·h/mL, the Vd was determined as 1.17 L/kg, the clearance was found to be 1 L/h/kg and the half-life was 43.1 min. In data set [2] (mouse, plasma, PO 3 mg/kg), the exposure (AUC) worked out at 0.479 µg·h/mL, the peak concentration (Cmax) was 0.22 µg/mL and the Tmax turned out to be 60 min. Also, in data set [3] (setting [4]), the “TGI (%)” value stood at 36.25%, the TIC is 63.75, the “Tumor volumes (mm^3) (Day 23)” value is 438.75 mm^3 and the “Tumor volumes (mm^3) (Day 0)” value amounted to 100.25 mm^3. Besides, in data set [3] (setting [5]), the “TGI (%)” value amounted to 85.02%, the TIC amounted to 14.98, the “Tumor volumes (mm^3) (Day 23)” value turned out to be 179.60 mm^3 and the “Tumor volumes (mm^3) (Day 0)” value is 100.06 mm^3.
